Activity calls are given as the source filed them.
Key:
[1] = target: DNA dC->dU-editing enzyme APOBEC-3G (Homo sapiens, UniProt Q9HC16); assay: Dose Response confirmation of small molecule APOBEC3G DNA Deaminase Inhibitors via a fluorescence-based single-stranded DNA deaminase assay. [Related pubchem assays (depositor defined):AID493012, AID493028]; assay type: functional
[2] = target: DNA dC->dU-editing enzyme APOBEC-3A (Homo sapiens, UniProt P31941); assay: APOBEC3A DNA deaminase inhibitors, dose response, biochemical (AID 504722); assay type: functional
[3] = A cytotoxicity screen of small molecule inhibitors of the PhoP region in Salmonella typhi identified in the primary screen. [Related pubchem assays: 1850, 1864, 1985 ]; assay type: functional
Beta Lactamase = Beta Lactamase (Pseudomonas aeruginosa, UniProt Q932Y6); assay: beta-lactamase reporter inhibitor potency, dose response, artefact control for TLR9-MyD88 binding inhibitor project, BLA reporter cells, FRET fluorescence (AID 588341); assay type: cell-based;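 further: cell based assay in CHO-K1 cells stably expressing beta-lactamase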
[4] = target: Neurotensin receptor type 1 (Homo sapiens, UniProt P30989); assay type: functional;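 further: Image-based confirmatory dose-response assay measuring agonist activity at NTR1; NTR1-expressing U2OS osteosarcoma cells imaged for beta-arrestin GFP spot formation; agonist potency where compounds increase beta-arrestin recruitment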
[5] = Counterscreen for activators of the function of SWI/SNF related, matrix associated, actin dependent regulator of chromatin, subfamily a, member 2 (SMARCA2, BRM): Luminescence-based cell-based high throughput dose response assay to identify non-selective compounds using the VP16 reporter assay.; assay type: functional
Paired box protein Pax-8 = Paired box protein Pax-8 (Homo sapiens, UniProt Q06710); assay: inhibitors of PAX8-driven TPO luciferase reporter, dose response, RMG-I cells, cherry-pick (AID 687027); assay type: functional, cell-based;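 further: luciferase reporter driven by Pax8 target thyroperoxidase promoter measured by SteadyGlo luminescence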
[6] = target: SWI/SNF-related matrix-associated actin-dependent regulator of chromatin subfamily A member 2 (Homo sapiens, UniProt P51531); assay: Luminescence-based cell-based high throughput dose response assay to identify activators of the function of SWI/SNF related, matrix associated, actin dependent regulator of chromatin, subfamily a, member 2 (SMARCA2, BRM).; assay type: functional
CHO = assay: cytotoxicity in TLR9-MyD88 CHO cells, dose response, cytotoxicity control for TLR9-MyD88 binding inhibitor project, cell-based, luminescence (AID 588339); assay type: functional, hamster; settings: Cricetulus griseus;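 further: CHO cells stably coexpressing TLR9 and MyD88 fusions from primary screen; compound exposure lasted 48 hours before viability readout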
[7] = non-specific cell cytotoxicity, dose response, cytotoxicity control for PAX8 inhibitor project, plate reader, dry powder samples (AID 743021); assay type: functional, cell-based
[8] = target: T1, DNA repair and recombination protein RAD54-like (Homo sapiens, UniProt Q92698); assay: inhibitors of human RAD54 branch migration, confirmation, biochemical, fluorescence, cherry-picked samples, dose series (AID 651657); assay type: functional
T1 sequence (Q92698 whole entry): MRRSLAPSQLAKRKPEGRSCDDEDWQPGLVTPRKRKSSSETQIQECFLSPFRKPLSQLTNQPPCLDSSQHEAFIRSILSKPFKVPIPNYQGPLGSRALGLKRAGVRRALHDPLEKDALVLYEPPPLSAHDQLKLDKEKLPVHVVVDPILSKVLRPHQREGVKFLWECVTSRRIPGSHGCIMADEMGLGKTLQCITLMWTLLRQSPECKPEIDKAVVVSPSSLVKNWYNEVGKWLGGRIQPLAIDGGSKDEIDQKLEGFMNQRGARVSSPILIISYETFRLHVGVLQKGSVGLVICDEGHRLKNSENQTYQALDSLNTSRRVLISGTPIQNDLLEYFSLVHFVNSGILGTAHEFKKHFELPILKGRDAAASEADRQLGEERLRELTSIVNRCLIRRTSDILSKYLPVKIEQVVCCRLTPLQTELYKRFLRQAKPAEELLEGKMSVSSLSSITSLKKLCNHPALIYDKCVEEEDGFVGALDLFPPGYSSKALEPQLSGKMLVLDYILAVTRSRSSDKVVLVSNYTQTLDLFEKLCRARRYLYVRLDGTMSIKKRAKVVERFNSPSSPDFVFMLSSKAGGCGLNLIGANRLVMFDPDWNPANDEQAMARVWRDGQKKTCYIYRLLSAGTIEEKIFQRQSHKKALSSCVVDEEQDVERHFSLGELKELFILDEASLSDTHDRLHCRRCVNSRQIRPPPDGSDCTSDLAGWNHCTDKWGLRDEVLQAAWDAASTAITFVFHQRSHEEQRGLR

INS1 = assay: beta cell apoptosis inhibitors, cytokine rescue, dose response, luminescence, retest (AID 449756); assay type: functional, cell-based; settings: Rattus norvegicus;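 further: cell death triggered by IL-1 beta plus TNF-alpha plus IFN-gamma mixture; protective hits raise ATP signal compared with cytokine alone wells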
[9] = MDA-MB-231 cell growth inhibition, dose response, cytotoxicity control for RAD54 inhibitor project, CellTiter-Glo luminescence, cherry-pick (AID 651692); assay type: functional, cell-based
Cytochrome P450 2C9 = Cytochrome P450 2C9 (Homo sapiens, UniProt P11712); settings: Potency
Cytochrome P450 2C19 = Cytochrome P450 2C19 (Homo sapiens, UniProt P33261); assay: qHTS Assay for Inhibitors and Substrates of Cytochrome P450 2C19. [Related pubchem assays: 410 ]; assay type: ADME; settings: read-out: Potency
Cytochrome P450 3A4 = Cytochrome P450 3A4 (Homo sapiens, UniProt P08684); settings: Potency;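 further: confirmatory qHTS run detecting inhibitors and substrates of CYP3A4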
[10] = target: T2, Voltage-gated N-type calcium channel alpha-1B subunit/Amyloid beta A4 precursor protein-binding family A member 1 (Homo sapiens, UniProt Q00975+Q02410); assay type: protein assay
NS3 = NS3 (Hepatitis C virus, UniProt A3EZJ3); assay: PubChem AID 2173; set-up: species or system Hepacivirus hominis
[11] = inhibitors of Bluetongue virus cytopathic effect, confirmation, arbovirus, BSR cells (AID 1250); assay type: functional;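 further: protection from viral cytopathic effect measured as cell viability by ATP luminescence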
[12] = target: Induced myeloid leukemia cell differentiation protein Mcl-1 (Homo sapiens, UniProt Q07820); assay type: functional
[13] = target: Eukaryotic translation initiation factor 4E (Mus musculus, UniProt P63073); assay: eIF4E–eIF4G protein interaction inhibitors, dose response, biochemical, TR-FRET (AID 855); assay type: functional;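 further: potency for disrupting eIF4E binding to eIF4GI seen as loss of FRET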
[14] = target: T2, Voltage-gated N-type calcium channel alpha-1B subunit/Amyloid beta A4 precursor protein-binding family A member 1; assay type: protein assay; remark: listed apart in the source
[15] = target: Melanin-concentrating hormone receptor 1 (Homo sapiens, UniProt Q99705); assay: Fluorescence-based counterscreen for antagonists of the G-protein coupled receptor 7 (GPR7): cell-based high throughput dose response assay to identify antagonists of the melanin-concentrating hormone receptor 1 (MCHR1).; assay type: functional
ORF 73 = ORF 73 (Human herpesvirus 8, UniProt O40947); assay: inhibitors of C-LANA binding to LBS DNA, dose response, biochemical, fluorescence polarization, cherry-picked samples (AID 504725); set-up: species or system Human gammaherpesvirus 8;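 further: fluorescence polarization of a labeled DNA duplex reporting LANA DNA binding; potency is for inhibitors that block LANA binding to the DNA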
HeLa = assay: HeLa cell cytotoxicity, dose response, cytotoxicity control, 24 h, cherry-picked samples (AID 504726); assay type: functional, cell-based; settings: Homo sapiens;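 further: potency for cytotoxicity as loss of luminescence signal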

Chain of Cytochrome P450 2C9 (P11712 whole entry): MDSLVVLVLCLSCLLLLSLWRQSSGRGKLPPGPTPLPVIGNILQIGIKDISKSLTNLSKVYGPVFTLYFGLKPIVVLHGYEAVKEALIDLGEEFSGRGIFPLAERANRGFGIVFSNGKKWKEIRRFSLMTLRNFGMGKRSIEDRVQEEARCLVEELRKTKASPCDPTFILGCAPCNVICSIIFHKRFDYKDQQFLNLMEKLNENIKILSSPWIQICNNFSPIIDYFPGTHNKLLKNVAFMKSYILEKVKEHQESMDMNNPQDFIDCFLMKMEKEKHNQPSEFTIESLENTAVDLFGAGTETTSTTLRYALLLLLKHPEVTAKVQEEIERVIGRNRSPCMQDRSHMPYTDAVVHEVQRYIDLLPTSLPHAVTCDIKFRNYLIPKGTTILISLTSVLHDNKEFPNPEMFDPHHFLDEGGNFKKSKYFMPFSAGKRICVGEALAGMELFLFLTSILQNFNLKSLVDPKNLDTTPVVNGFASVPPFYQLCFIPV
T2 sequence (Q00975 whole entry): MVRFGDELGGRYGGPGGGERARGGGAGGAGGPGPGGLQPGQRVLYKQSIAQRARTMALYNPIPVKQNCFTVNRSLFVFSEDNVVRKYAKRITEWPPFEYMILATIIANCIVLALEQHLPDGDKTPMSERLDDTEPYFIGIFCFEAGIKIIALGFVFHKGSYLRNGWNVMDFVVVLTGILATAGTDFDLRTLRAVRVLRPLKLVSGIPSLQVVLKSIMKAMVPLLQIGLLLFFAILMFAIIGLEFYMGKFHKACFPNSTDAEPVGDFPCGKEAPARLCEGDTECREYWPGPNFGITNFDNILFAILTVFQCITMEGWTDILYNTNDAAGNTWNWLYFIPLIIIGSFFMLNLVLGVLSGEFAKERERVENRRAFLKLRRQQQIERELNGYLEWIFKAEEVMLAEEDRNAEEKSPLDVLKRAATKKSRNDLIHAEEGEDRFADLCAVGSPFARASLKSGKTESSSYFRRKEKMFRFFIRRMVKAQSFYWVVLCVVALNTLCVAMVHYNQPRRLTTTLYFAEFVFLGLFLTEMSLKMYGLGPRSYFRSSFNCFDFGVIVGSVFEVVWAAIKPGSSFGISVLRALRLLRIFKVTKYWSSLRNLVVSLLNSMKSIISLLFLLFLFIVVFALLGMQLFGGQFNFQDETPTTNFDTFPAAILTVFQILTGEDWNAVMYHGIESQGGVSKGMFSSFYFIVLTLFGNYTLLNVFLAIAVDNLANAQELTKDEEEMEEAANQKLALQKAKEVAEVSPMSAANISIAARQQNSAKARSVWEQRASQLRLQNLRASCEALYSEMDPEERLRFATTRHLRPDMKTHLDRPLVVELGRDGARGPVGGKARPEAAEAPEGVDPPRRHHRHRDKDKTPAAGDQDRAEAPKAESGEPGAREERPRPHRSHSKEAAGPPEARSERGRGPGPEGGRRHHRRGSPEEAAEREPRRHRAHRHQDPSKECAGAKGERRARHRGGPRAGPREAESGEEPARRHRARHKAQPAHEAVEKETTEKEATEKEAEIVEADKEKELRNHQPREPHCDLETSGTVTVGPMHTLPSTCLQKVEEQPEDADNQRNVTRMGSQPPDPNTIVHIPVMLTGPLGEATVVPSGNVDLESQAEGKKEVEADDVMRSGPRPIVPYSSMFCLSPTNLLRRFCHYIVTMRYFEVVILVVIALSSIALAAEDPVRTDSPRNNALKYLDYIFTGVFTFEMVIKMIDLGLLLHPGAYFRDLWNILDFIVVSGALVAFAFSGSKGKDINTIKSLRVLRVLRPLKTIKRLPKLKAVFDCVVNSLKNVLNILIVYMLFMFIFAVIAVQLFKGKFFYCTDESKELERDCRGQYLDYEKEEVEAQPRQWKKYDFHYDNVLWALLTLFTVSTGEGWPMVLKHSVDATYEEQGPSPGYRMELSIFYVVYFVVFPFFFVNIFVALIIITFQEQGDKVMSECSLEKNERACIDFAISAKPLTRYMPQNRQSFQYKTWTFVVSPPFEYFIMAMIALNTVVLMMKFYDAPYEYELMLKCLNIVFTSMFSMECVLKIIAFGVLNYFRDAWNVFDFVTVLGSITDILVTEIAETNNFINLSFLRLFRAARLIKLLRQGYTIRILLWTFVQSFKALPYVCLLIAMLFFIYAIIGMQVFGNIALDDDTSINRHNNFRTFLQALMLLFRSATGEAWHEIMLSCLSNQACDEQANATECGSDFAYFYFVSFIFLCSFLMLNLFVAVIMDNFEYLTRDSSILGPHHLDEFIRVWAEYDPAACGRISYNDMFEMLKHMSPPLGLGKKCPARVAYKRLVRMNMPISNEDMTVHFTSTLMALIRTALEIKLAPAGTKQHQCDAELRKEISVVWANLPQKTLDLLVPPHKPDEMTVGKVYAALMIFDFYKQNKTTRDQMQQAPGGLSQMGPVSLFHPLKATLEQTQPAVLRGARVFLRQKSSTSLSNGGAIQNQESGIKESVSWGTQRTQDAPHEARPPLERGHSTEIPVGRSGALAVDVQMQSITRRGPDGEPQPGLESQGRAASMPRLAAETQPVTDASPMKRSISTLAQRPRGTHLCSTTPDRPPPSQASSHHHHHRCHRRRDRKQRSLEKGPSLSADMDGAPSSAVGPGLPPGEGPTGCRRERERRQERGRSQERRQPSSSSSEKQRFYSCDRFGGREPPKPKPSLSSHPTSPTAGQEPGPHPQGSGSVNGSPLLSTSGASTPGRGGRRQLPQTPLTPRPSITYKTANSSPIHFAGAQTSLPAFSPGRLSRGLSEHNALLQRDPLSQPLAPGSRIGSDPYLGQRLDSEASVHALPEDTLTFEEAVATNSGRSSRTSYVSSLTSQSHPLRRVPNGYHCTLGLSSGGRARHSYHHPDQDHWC
T2 sequence (Q02410 whole entry): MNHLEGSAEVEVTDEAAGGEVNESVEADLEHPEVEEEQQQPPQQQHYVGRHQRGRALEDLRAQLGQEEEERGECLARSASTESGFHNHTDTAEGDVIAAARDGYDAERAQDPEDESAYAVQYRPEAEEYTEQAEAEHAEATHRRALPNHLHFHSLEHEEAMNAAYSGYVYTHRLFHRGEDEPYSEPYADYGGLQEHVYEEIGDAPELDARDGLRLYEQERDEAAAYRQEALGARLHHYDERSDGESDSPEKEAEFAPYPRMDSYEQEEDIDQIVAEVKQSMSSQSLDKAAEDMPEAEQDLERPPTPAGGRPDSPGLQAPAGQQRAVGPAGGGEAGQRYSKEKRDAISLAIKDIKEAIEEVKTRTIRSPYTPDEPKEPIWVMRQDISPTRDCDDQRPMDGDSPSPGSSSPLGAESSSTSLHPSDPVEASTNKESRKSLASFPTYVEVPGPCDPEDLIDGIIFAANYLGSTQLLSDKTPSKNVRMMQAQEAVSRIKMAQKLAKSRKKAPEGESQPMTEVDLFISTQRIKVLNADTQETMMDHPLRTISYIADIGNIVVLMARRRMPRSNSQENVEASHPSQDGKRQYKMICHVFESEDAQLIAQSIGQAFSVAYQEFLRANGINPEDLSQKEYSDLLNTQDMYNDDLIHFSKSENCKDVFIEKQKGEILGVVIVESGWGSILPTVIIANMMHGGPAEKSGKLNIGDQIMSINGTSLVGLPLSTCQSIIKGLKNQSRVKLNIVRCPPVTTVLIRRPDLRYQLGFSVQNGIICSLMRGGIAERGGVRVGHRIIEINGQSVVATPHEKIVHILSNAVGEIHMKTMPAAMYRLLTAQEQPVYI
Chain of NS3 (A3EZJ3 whole entry): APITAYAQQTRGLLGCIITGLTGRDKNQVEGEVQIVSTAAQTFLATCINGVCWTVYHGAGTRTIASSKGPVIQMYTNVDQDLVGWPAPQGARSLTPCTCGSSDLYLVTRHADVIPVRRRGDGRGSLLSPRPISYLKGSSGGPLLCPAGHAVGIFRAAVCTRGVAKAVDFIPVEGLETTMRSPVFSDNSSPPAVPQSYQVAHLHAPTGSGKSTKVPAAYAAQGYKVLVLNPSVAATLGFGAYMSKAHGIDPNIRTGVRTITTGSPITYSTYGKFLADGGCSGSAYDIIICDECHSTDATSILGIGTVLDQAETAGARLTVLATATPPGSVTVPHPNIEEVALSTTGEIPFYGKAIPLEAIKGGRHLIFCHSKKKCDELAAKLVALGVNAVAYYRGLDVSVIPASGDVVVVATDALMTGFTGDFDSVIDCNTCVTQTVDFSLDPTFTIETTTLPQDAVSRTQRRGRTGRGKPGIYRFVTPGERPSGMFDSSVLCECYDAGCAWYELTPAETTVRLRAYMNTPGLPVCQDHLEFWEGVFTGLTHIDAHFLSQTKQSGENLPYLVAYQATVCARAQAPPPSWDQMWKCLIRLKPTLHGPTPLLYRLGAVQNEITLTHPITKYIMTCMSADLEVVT
Chain of Paired box protein Pax-8 (Q06710 whole entry): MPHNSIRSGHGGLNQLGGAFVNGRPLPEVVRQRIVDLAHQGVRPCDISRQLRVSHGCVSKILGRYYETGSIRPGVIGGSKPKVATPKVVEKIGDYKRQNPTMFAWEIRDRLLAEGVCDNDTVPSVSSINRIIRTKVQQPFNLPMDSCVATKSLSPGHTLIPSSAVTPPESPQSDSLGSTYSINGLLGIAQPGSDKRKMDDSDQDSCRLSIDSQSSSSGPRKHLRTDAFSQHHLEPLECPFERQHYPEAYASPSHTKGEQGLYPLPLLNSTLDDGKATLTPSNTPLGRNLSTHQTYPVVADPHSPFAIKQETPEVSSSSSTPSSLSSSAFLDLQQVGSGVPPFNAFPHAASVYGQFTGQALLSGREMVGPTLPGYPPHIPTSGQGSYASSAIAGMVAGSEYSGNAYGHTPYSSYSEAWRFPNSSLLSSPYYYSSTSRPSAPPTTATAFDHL
Chain of Melanin-concentrating hormone receptor 1 (Q99705 whole entry): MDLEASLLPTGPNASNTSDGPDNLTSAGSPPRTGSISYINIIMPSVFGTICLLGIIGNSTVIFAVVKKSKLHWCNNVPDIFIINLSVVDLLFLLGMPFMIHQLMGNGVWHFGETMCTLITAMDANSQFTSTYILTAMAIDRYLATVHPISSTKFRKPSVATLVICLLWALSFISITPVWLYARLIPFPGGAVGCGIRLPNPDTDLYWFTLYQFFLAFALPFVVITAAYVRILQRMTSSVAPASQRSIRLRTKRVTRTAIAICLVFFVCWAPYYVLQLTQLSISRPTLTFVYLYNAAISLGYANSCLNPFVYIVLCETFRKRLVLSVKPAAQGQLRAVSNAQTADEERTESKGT

In the case of `Sc1nnc(-c2cccnc2)n1/N=C/C=C/c1ccccc1`, the IC50 [1] is reported as 2.33 µM (active) and the IC50 [2] is reported as > 100 µM (inactive).
With `O=S(=O)(Nc1ncccn1)c1ccc(NC(=S)Nc2cccc(Cl)c2)cc1` the EC50 [3] was > 50 µM (active).
With `NC1=NC2(CCCCC2)n2c(nc3ccccc32)N1` the EC50 [3] was > 50 µM (active).
For `COc1ccc(Cn2cc3c(-c4ccc(F)cc4)nnc-3c3cc(OC)c(OC)cc32)cc1`, the IC50 (Beta Lactamase) was 5.58 µM (active), the EC50 [4] was 5.72 µM (active) and the EC50 [5] was > 91.2 µM (inactive). For the same compound, the AC50 (Paired box protein Pax-8) was 12.9 µM (active), the EC50 [6] was > 91.2 µM (inactive) and the IC50 (CHO) was 11.9 µM (inactive). The AC50 [7] was 29.5 µM (active), the AC50 [8] was 7.21 µM (active) and the AC50 (INS1) was 6.94 µM (active). The AC50 [9] was 15.3 µM (active).
With `CC(=O)c1ccc(OCc2ccccc2)c(C)c1O` the AC50 (Cytochrome P450 2C9) was 2 µM (inconclusive).
In the case of `COc1ccc(OC2C=CC(C#Cc3ccc(C(C)(C)C)cc3)OC2CO)cc1` (configuration not stated), the AC50 (Cytochrome P450 2C19) is reported as 2.51 µM (inconclusive), the AC50 (Cytochrome P450 3A4) is reported as 3.98 µM (inconclusive) and the AC50 (Cytochrome P450 2C9) is reported as 0.398 µM (inconclusive).
For `Cc1ccc(-n2cccc2/C=C2\C(=N)N3N=C(c4ccco4)SC3=NC2=O)cc1`, the IC50 [10] was 8.99 µM (active), the IC50 (NS3) was 5.31 µM (active) and the IC50 [11] was 26 µM (active). For the same compound, the IC50 [12] was 1.7 µM (active), the IC50 [13] was 50 µM (inactive) and the IC50 [14] was > 50 µM (inactive).
For `COc1cccc(CC2(CO)CCCN(Cc3c(C)cc(C)cc3-n3cccn3)C2)c1` (configuration not stated), the IC50 [15] was 12.6 µM (not active).
With `O=c1ccc2cc3c4c(c2o1)CCCN4CCC3` the AC50 (ORF 73) was 12.6 µM (active).
With `CC(Sc1ncccn1)C(=O)NNC(=O)c1cccc(Cl)c1` (configuration not stated) the AC50 (HeLa) was 46.6 µM (active).
